From ChEMBL document CHEMBL4118101 (Bioorg Med Chem, 2018)
In brackets after ≈: the same amount, converted by molar mass. Activity calls are given as the source filed them. The calls are words filed in the database; no cut-off is given here.

What was measured:
[1] = test system: Erythrocyte; experiment: (§1) Hemolytic activity in mouse RBC at 62.5 ug/ml after 1 hr relative to control; format: ADME, cell-based; conditions: erythrocyte, 1 h
[2] = test system: Cryptococcus neoformans; experiment: Antifungal activity against Cryptococcus neoformans isolate CN2 measured after 48 hrs by CLSI M27-A3 protocol based method; format: functional
[3] = test system: Candida albicans; experiment: Antifungal activity against Candida albicans ATCC 64124 measured after 48 hrs by CLSI M27-A3 protocol based method; format: functional
[4] = test system: Candida albicans; experiment: Antifungal activity against fluconazole/ITC-susceptible Candida albicans ATCC MYA-2876 measured after 48 hrs by CLSI M27-A3 protocol based method; format: functional
[5] = test system: Candida albicans; experiment: Antifungal activity against fluconazole/ITC-resistant Candida albicans ATCC 90819 measured after 48 hrs by CLSI M27-A3 protocol based method; format: functional
[6] = test system: Candida albicans; experiment: Antifungal activity against fluconazole/ITC-susceptible Candida albicans ATCC MYA-2310 measured after 48 hrs by CLSI M27-A3 protocol based method; format: functional
[7] = test system: Candida albicans; experiment: Antifungal activity against fluconazole/ITC-resistant Candida albicans ATCC MYA-1237 measured after 48 hrs by CLSI M27-A3 protocol based method; format: functional
[8] = test system: Candida albicans; experiment: Antifungal activity against fluconazole/ITC-resistant Candida albicans ATCC MYA-1003 measured after 48 hrs by CLSI M27-A3 protocol based method; format: functional
[9] = test system: Nakaseomyces glabratus; experiment: Antifungal activity against Candida glabrata ATCC 2001 measured after 48 hrs by CLSI M27-A3 protocol based method; format: functional, CBS 138
[10] = test system: Pichia kudriavzevii; experiment: Antifungal activity against Candida krusei ATCC 6258 measured after 48 hrs by CLSI M27-A3 protocol based method; format: functional
[11] = test system: Candida parapsilosis; experiment: Antifungal activity against Candida parapsilosis ATCC 22019 measured after 48 hrs by CLSI M27-A3 protocol based method; format: functional
[12] = test system: Aspergillus nidulans; experiment: Antifungal activity against Aspergillus nidulans ATCC 38163 measured after 48 hrs by CLSI M38-A2 protocol based method; format: functional; conditions: ATCC 38163, 48 h
[13] = test system: Aspergillus terreus; experiment: Antifungal activity against Aspergillus terreus ATCC MYA-3633 measured after 48 hrs by CLSI M38-A2 protocol based method; format: functional; conditions: ATCC MYA-3633, 48 h
[14] = test system: Nakaseomyces glabratus; experiment: Antifungal activity against Candida glabrata isolate CG1 measured after 48 hrs by CLSI M27-A3 protocol based method; format: functional
[15] = test system: Nakaseomyces glabratus; experiment: Antifungal activity against Candida glabrata isolate CG2 measured after 48 hrs by CLSI M27-A3 protocol based method; format: functional
[16] = test system: Nakaseomyces glabratus; experiment: Antifungal activity against Candida glabrata isolate CG3 measured after 48 hrs by CLSI M27-A3 protocol based method; format: functional
[17] = test system: Candida parapsilosis; experiment: Antifungal activity against Candida parapsilosis isolate CP1 measured after 48 hrs by CLSI M27-A3 protocol based method; format: functional
[18] = test system: Candida parapsilosis; experiment: Antifungal activity against Candida parapsilosis isolate CP2 measured after 48 hrs by CLSI M27-A3 protocol based method; format: functional
[19] = test system: Cryptococcus neoformans; experiment: Antifungal activity against Cryptococcus neoformans isolate CN3 measured after 48 hrs by CLSI M27-A3 protocol based method; format: functional
[20] = test system: Candida parapsilosis; experiment: Antifungal activity against Candida parapsilosis isolate CP3 measured after 48 hrs by CLSI M27-A3 protocol based method; format: functional
[21] = test system: Candida albicans; experiment: Antifungal activity against Candida albicans ATCC 10231 measured after 48 hrs in presence of 10% FBS by CLSI M27-A3 protocol based method; format: functional
[22] = test system: Candida parapsilosis; experiment: Antifungal activity against Candida parapsilosis ATCC 22019 measured after 48 hrs in presence of 10% FBS by CLSI M27-A3 protocol based method; format: functional
[23] = test system: Aspergillus nidulans; experiment: Antifungal activity against Aspergillus nidulans ATCC 38163 measured after 48 hrs in presence of 10% FBS by CLSI M38-A2 protocol based method; format: functional; conditions: ATCC 38163, 48 h
[24] = test system: Candida albicans; experiment: Fungistatic activity against Candida albicans ATCC 10231 at 4 times MIC incubated for 24 hrs by time kill assay; format: functional, organism-based
[25] = test system: Candida parapsilosis; experiment: Fungistatic activity against Candida parapsilosis ATCC 22019 up to 4 times MIC incubated for 24 hrs by time kill assay; format: functional, organism-based
[26] = Hemolytic activity in mouse RBC at 0.48 ug/ml after 1 hr relative to control; format: ADME, cell-based, Erythrocyte; conditions: mouse red blood cells (erythrocytes), read-out: Activity
[27] = Hemolytic activity in mouse RBC at […] ug/ml after 1 hr relative to control; format: ADME, cell-based, Erythrocyte; conditions: mouse red blood cells (erythrocytes), read-out: Activity
[28] = Hemolytic activity in mouse RBC at 1.95 ug/ml after 1 hr relative to control; format: ADME, cell-based, Erythrocyte; conditions: mouse red blood cells (erythrocytes), at 1.95 µg/mL, read-out: Activity
[29] = Hemolytic activity in mouse RBC at 3.9 ug/ml after 1 hr relative to control; format: ADME, cell-based, Erythrocyte; conditions: mouse red blood cells (erythrocytes), read-out: Activity
[30] = Hemolytic activity in mouse RBC at 7.8 ug/ml after 1 hr relative to control; format: ADME, cell-based, Erythrocyte; conditions: mouse red blood cells (erythrocytes), read-out: Activity
[31] = test system: Candida albicans; experiment: Induction of membrane permeabilization in Candida albicans ATCC 10231 assessed as membrane disruption at 4 times MIC after 1 hr by propidium iodide staining based fluorescence microscopy; format: functional, organism-based
[32] = test system: Candida albicans; experiment: Inhibition of Candida albicans ATCC 10231 ERG11 assessed as ergosterol composition of total sterols at 0.12 ug/ml incubated for 10 mins followed by saponification for 2 hrs by GC-MS method (reference value: 100%); parameters: scale not given: the % may be the effect or the level left
[33] = test system: Candida albicans; experiment: Inhibition of Candida albicans ATCC 10231 ERG11 assessed as lanosterol composition of total sterols at 0.12 ug/ml incubated for 10 mins followed by saponification for 2 hrs by GC-MS method relative to control; parameters: scale not given: the % may be the effect or the level left
[34] = test system: Candida albicans; experiment: Inhibition of Candida albicans ATCC 10231 ERG11 assessed as eburicol composition of total sterols at 0.12 ug/ml incubated for 10 mins followed by saponification for 2 hrs by GC-MS method relative to control; parameters: scale not given: the % may be the effect or the level left
[35] = test system: Candida albicans; experiment: Inhibition of Candida albicans ATCC 10231 ERG11 assessed as 14alphamethyl ergosta-8,24(28)-diene-3beta,6alpha-diol composition of total sterols at 0.12 ug/ml incubated for 10 mins followed by saponification for 2 hrs by GC-MS method relative to control; parameters: scale not given: the % may be the effect or the level left
[36] = as §1; format: ADME, cell-based, Erythrocyte; conditions: mouse red blood cells (erythrocytes), read-out: Activity
[37] = test system: Candida albicans; experiment: Antifungal activity against Candida albicans ATCC 10231 measured after 48 hrs by CLSI M27-A3 protocol based method; format: functional; conditions: ATCC 10231, 48 h
[38] = test system: Aspergillus flavus; experiment: Antifungal activity against Aspergillus flavus ATCC MYA-3631 measured after 48 hrs by CLSI M38-A2 protocol based method; format: functional; conditions: ATCC MYA-3631, 48 h
[39] = test system: Cryptococcus neoformans; experiment: Antifungal activity against Cryptococcus neoformans isolate CN1 measured after 48 hrs by CLSI M27-A3 protocol based method; format: functional; conditions: isolate CN1, 48 h
[40] = Hemolytic activity in mouse RBC at 31.3 ug/ml after 1 hr relative to control; format: ADME, cell-based, Erythrocyte; conditions: mouse red blood cells (erythrocytes), at 31.3 µg/mL, read-out: Activity
[41] = test system: HEK293; experiment: Cytotoxicity against HEK293 cells at 7.8 ug/ml after 24 hrs by resazurin based assay; format: cell-based; conditions: human, hek293, 24 h
[42] = Lodderomyces parapsilosis, ATCC 22019, 48 h
[43] = Nakaseomyces glabratus, 48 h, read-out: MIC

## C[C@@H](c1ncncc1F)[C@](O)(Cn1cncn1)c1ccc(F)cc1F [VORICONAZOLE]
[1]
  Activity: 100%
[2]
  MIC: 2.76 µM (≈ 0.964 µg/mL)
[3]
  MIC: 11.2 µM (≈ 3.91 µg/mL)
[4]
  MIC=<50: 5.6 µM (≈ 1.96 µg/mL)
[5]
  MIC: 5.6 µM (≈ 1.96 µg/mL)
[6]
  MIC: 2.8 µM (≈ 0.978 µg/mL)
[7]
  MIC: 22.3 µM (≈ 7.79 µg/mL)
[8]
  MIC: 5.6 µM (≈ 1.96 µg/mL)
[9]
  MIC: 0.17 to 0.69 µM
[10]
  MIC=<50: 0.34 µM (≈ 0.119 µg/mL)
[11]
  MIC=<50: <0.06 µM
[12]
  MIC: 0.34 µM (≈ 0.119 µg/mL)
[13]
  MIC: 0.34 µM (≈ 0.119 µg/mL)
[14]
  MIC: 2.76 µM (≈ 0.964 µg/mL)
[15]
  MIC: 11.2 µM (≈ 3.91 µg/mL)
[16]
  MIC: >89.9 µM
[17]
  MIC=<50: <0.06 µM
[18]
  MIC=<50: <0.06 µM
[19]
  MIC: 0.35 µM (≈ 0.122 µg/mL)
[20]
  MIC=<50: <0.06 µM
[21]
  MIC=<50: 0.48 µg/mL
[22]
  MIC=<50: 0.015 µg/mL
[23]
  MIC: 0.12 µg/mL
[24]
  Activity: Active
[25]
  Activity: Active
[26]
  hemolysis at 1 h, 0.48 ug/ml: 9%
[27]
  hemolysis at 1 h, 0.975 ug/ml: 10%
  hemolysis at 1 h, 15.6 ug/ml: 3%
[28]
  hemolysis at 1 h, 1.95 ug/ml: 6%
[29]
  hemolysis at 1 h, 3.9 ug/ml: 7%
[30]
  hemolysis at 1 h, 7.8 ug/ml: 11%
[31]
  Activity: inactive
[32]
  Activity: 50.8%
[33]
  Activity: 15.2%
[34]
  Activity: 1.73%
[35]
  Activity: 9.86%

## CCCCCCCCCCNCC(O)(Cn1cncn1)c1ccc(F)cc1F (stereo not drawn)
[36]
  hemolysis at 1 h, 62.5 ug/ml: 100%
[2]; Cryptococcus neoformans, isolate CN2, 48 h, read-out: MIC
  MIC: 0.61 µM (≈ 0.241 µg/mL)
[37]
  MIC: 1.2 µM (≈ 0.473 µg/mL)
[3]; Candida albicans, ATCC 64124, 48 h, read-out: MIC
  MIC: 39.5 µM (≈ 15.6 µg/mL)
[4]; Candida albicans, ATCC MYA-2876, 48 h
  MIC: 9.9 µM (≈ 3.91 µg/mL)
[5]; Candida albicans, ATCC 90819, 48 h, read-out: MIC
  MIC: 9.9 µM (≈ 3.91 µg/mL)
[6]; Candida albicans, ATCC MYA-2310, 48 h, read-out: MIC
  MIC: 19.8 µM (≈ 7.81 µg/mL)
[7]; Candida albicans, ATCC MYA-1237, 48 h, read-out: MIC
  MIC: 19.8 µM (≈ 7.81 µg/mL)
[8]; Candida albicans, ATCC MYA-1003, 48 h, read-out: MIC
  MIC: 19.8 µM (≈ 7.81 µg/mL)
[9]; Nakaseomyces glabratus, CBS 138, 48 h, read-out: MIC
  MIC: 1.2 to 2.5 µM (≈ 0.473 to 0.986 µg/mL)
[10]; Pichia kudriavzevii, ATCC 6258, 48 h
  MIC: 1.2 µM (≈ 0.473 µg/mL)
[11]; [42]
  MIC: 0.08 µM (≈ 0.0316 µg/mL)
[12]
  MIC: 2.5 µM (≈ 0.986 µg/mL)
[38]
  MIC: 19.8 µM (≈ 7.81 µg/mL)
[13]
  MIC: 9.9 µM (≈ 3.91 µg/mL)
[14]; [43]
  MIC: 4.9 µM (≈ 1.93 µg/mL)
[15]; Nakaseomyces glabratus, isolate CG2, 48 h, read-out: MIC
  MIC: 1.2 µM (≈ 0.473 µg/mL)
[16]; [43]
  MIC: 9.9 µM (≈ 3.91 µg/mL)
[17]; Lodderomyces parapsilosis, isolate CP1, 48 h
  MIC: 0.15 µM (≈ 0.0592 µg/mL)
[18]; Lodderomyces parapsilosis, isolate CP2, 48 h
  MIC: 0.3 µM (≈ 0.118 µg/mL)
[39]
  MIC: 0.61 µM (≈ 0.241 µg/mL)
[19]; Cryptococcus neoformans, isolate CN3, 48 h, read-out: MIC
  MIC: 1.2 µM (≈ 0.473 µg/mL)
[20]; Lodderomyces parapsilosis, isolate CP3, 48 h
  MIC: 0.61 µM (≈ 0.241 µg/mL)
[21]; Candida albicans, ATCC 10231, 48 h
  MIC: 0.48 µg/mL
[22]; [42]
  MIC: 0.06 µg/mL
[23]
  MIC: 1.95 µg/mL
[24]
  Activity: Active
[25]
  Activity: Active
[26]
  hemolysis at 1 h, 0.48 ug/ml: 0%
[27]
  hemolysis at 1 h, 0.975 ug/ml: 0%
  hemolysis at 1 h, 15.6 ug/ml: 33%
[28]
  hemolysis at 1 h, 1.95 ug/ml: 2%
[29]
  hemolysis at 1 h, 3.9 ug/ml: 3%
[30]
  hemolysis at 1 h, 7.8 ug/ml: 8%
[40]
  hemolysis at 1 h, 31.3 ug/ml: 92%
[41]
  Activity: Non-Toxic
[31]
  Activity: inactive
